Source: ChEMBL document CHEMBL1201862, “PubChem BioAssay data set” (2004)
The source made the active and inactive calls.

What was measured:
[1] = molecular target: T1, Short transient receptor potential channel 4 (Mus musculus, UniProt Q9QUQ5); assay: mouse TRPC4 channel inhibitors, dose response, cell-based, HEK293 TRPC4/mu-opioid, Fluo-4 calcium (AID 434942); assay type: functional;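 note: potency of inhibitors blocking the TRPC4 calcium response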
T1 sequence (Q9QUQ5 whole entry): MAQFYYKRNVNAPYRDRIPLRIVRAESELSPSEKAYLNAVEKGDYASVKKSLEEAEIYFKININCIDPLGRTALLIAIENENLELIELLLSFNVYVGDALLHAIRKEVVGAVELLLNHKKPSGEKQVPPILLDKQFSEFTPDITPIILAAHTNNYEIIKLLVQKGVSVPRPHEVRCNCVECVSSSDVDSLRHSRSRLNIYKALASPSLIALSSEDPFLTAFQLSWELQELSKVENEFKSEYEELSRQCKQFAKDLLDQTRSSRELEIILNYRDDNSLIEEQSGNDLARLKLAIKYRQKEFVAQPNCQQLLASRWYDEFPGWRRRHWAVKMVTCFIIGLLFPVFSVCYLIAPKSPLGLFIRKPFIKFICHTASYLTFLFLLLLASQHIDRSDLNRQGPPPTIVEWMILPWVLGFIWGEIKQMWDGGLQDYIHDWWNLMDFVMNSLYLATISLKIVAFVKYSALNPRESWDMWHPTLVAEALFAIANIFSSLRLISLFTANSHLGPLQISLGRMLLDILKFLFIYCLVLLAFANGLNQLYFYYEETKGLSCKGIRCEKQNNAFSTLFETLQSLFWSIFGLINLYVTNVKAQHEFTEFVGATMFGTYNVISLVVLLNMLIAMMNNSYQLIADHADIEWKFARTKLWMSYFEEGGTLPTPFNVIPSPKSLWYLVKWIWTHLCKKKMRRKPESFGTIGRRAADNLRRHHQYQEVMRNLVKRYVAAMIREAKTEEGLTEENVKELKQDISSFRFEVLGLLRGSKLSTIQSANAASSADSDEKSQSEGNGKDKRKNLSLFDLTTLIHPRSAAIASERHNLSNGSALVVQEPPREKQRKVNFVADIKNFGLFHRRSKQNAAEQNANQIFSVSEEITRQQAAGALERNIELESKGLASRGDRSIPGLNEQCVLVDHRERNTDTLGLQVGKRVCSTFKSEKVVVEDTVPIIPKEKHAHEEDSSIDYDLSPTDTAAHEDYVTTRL

[2] = molecular target: T1, Short transient receptor potential channel 4; assay: mouse TRPC4 channel activators, dose response, cell-based, HEK293 TRPC4/mu-opioid, Fluo-4 calcium (AID 434937); assay type: functional
[3] = molecular target: T2, Heat shock factor protein 1 (Mus musculus, UniProt P38532); assay: inhibition of MG132-induced HSE-luciferase signal, confirmation, cell-based, NIH3T3, luminescence, dose retest (AID 2382); assay type: functional;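 note: NIH3T3 fibroblasts with HSF1-driven luciferase reporter stressed by proteasome inhibitor MG132; luminescence from HSF1-driven luciferase expression after 8 hours of MG132 stress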
T2 sequence (P38532 whole entry): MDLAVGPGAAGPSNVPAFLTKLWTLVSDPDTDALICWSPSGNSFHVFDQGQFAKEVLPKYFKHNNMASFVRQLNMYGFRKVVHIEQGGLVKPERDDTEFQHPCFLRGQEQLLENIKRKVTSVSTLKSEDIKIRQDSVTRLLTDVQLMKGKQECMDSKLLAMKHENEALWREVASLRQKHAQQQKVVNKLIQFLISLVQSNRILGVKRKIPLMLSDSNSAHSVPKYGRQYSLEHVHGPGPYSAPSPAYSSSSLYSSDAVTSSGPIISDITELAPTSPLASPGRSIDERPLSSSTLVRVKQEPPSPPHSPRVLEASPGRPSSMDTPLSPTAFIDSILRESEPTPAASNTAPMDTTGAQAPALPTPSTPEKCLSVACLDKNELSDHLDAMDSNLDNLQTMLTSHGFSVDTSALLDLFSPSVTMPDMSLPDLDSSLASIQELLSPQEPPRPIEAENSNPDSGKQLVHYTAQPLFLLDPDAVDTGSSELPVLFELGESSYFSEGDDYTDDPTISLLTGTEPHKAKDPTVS

[4] = molecular target: T3, Endoribonuclease toxin MazF (Escherichia coli K-12, UniProt P0AE70); assay: fluorescent RNA oligo signal without MazF, dose response, counter-screen for MazEF activator project, biochemical, fluorescence, single-stranded RNase substrate (AID 588502); assay type: functional
T3 sequence (P0AE70 whole entry): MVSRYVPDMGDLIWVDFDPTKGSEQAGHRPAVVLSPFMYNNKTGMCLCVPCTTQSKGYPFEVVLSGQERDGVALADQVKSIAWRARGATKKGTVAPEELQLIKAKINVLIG

[5] = molecular target: T3, Endoribonuclease toxin MazF; assay: MazF toxin RNase activators, dose response, biochemical, fluorescence, single-stranded RNA substrate, uHTS hits (AID 588481); assay type: functional
[6] = molecular target: Intestinal-type alkaline phosphatase (Mus musculus, UniProt P24822); assay: PubChem AID 488785; assay type: functional
[7] = HEp-2 cell cytotoxicity, dose response, cytotoxicity control for RSV inhibitor project, HTS (AID 2410); assay type: functional; settings: human respiratory syncytial virus
[8] = molecular target: Intestinal-type alkaline phosphatase (Homo sapiens, UniProt P09923); assay: inhibition of human intestinal alkaline phosphatase – biochemical, dose response (AID 488876); assay type: functional
[9] = molecular target: T4, Alkaline phosphatase, tissue-nonspecific isozyme (Homo sapiens, UniProt P05186); assay: TNAP enzyme inhibition by screening hits, dose response, selectivity assay for mouse IAP inhibitor project, biochemical, human TNAP, uHTS hits (AID 488906); assay type: functional
T4 sequence (P05186 whole entry): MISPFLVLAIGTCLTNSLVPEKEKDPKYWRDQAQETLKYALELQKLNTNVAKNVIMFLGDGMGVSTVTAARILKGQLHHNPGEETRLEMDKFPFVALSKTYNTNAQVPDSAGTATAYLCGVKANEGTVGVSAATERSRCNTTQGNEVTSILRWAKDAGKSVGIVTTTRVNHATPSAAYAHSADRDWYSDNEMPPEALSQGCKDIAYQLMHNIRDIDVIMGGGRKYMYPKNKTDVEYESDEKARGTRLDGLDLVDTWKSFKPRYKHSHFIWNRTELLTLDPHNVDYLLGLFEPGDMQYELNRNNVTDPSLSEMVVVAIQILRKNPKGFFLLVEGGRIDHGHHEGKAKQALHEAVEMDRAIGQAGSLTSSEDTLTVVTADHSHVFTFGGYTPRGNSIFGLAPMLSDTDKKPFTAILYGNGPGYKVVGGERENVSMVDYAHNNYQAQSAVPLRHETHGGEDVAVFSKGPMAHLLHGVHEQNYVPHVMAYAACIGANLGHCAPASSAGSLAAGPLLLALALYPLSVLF

[10] = cells
[11] = cells; assay type: functional
[12] = AlphaScreen signal interference compounds, dose response, artefact control for ARNT-TACC3 interaction inhibitor project, biochemical, luminescence, cherry-pick (AID 651705); assay type: functional;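 note: AlphaScreen bead proximity signal that flags compounds interfering with the detection technology; potency reflects signal decrease which marks the compound as an assay artifact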
[13] = Vero E6 cell cytotoxicity, dose response, cytotoxicity control for non-replicating M. tuberculosis project, secondary assay (AID 492998); assay type: functional, VeroE6; settings: Vero C1008
[14] = molecular target: G-protein coupled receptor 55 (Homo sapiens, UniProt Q9Y2T6); assay: GPR55 antagonists blocking LPI-driven arrestin recruitment, primary screen, imaging, U2OS, beta-arrestin-GFP, LPI agonist (AID 2013); assay type: functional;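 note: antagonist potency measured as reduced agonist-driven arrestin aggregation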
[15] = A Cell Based Secondary Assay To Explore Cytotoxicity of Compounds that Sensitize Mycobacterium Tuberculosis to Beta-Lactam Antibiotics.; assay type: functional
[16] = molecular target: T5, Ubiquitin-conjugating enzyme E2 N (Homo sapiens, UniProt P61088); assay type: functional
T5 sequence (P61088 whole entry): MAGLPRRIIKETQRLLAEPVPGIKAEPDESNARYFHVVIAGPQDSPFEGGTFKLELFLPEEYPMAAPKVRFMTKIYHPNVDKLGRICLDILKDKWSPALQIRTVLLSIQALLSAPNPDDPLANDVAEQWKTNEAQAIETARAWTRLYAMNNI

[17] = molecular target: T5, Ubiquitin-conjugating enzyme E2 N; assay type: functional; remark: listed apart in the source
[18] = tested on: INS1; assay: beta cell apoptosis inhibitors, cytokine rescue, dose response, luminescence, retest (AID 449756); assay type: functional, cell-based; settings: Rattus norvegicus;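 note: cell death triggered by IL-1 beta plus TNF-alpha plus IFN-gamma mixture; protective hits raise ATP signal compared with cytokine alone wells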
[19] = molecular target: T6, Bcl-2-related protein A1 (Mus musculus, UniProt Q07440); assay type: functional;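 note: confirmatory dose–response counterscreen on Bfl-1, used to check hits from a UBC13 polyubiquitin inhibitor campaign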
T6 sequence (Q07440 whole entry): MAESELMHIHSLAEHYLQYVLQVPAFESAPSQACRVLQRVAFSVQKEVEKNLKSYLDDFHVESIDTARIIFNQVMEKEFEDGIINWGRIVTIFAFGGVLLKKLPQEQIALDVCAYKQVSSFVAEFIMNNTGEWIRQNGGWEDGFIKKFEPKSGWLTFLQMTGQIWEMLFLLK

[20] = growth suppression of PTEN-null colon cells, dose response, cell-based, HCT116 PTEN knockout (AID 1047); assay type: functional;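 note: HCT116 colon tumor cells with PTEN knocked out; cells exposed to compound for 60 hours before readout; potency for loss of cell viability measured by luminescence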
[21] = growth suppression of beta-catenin-knockout colon cells, dose response, cell-based, HCT116, human colon tumor (AID 1045); assay type: functional;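 note: HCT116 colon tumor cells with beta catenin knocked out; cells exposed to compound for 60 hours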
[22] = molecular target: T7, Mannose-6-phosphate isomerase (Homo sapiens, UniProt P34949); assay: PMI enzyme inhibitors, confirmation, biochemical, fluorescence intensity (AID 1535)
T7 sequence (P34949 whole entry): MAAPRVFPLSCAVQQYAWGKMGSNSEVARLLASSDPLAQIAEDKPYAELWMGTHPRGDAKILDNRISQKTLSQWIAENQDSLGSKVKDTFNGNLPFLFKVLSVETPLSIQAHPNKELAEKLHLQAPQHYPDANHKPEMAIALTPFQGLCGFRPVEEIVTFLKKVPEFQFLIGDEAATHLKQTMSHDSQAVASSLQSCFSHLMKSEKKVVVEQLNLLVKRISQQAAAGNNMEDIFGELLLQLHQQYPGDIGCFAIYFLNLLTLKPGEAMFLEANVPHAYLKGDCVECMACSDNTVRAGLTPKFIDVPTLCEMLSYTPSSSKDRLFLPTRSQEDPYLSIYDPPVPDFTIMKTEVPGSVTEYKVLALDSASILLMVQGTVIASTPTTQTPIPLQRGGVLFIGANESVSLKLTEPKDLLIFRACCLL

[23] = molecular target: T8, Phosphomannomutase 2 (Homo sapiens, UniProt O15305); assay: Counter screen SAR assay for PMM2 inhibitors via a fluorescence intensity assay. [Related pubchem assays (depositor defined):AID1545, AID1574]
T8 sequence (O15305 whole entry): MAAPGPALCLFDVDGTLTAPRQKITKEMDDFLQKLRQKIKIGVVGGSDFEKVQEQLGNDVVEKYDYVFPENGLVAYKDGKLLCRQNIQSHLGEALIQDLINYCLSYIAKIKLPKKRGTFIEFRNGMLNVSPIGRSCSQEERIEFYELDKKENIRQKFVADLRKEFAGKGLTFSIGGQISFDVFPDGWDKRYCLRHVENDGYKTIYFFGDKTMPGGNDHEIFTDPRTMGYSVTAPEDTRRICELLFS

Chain of G-protein coupled receptor 55 (Q9Y2T6 whole entry): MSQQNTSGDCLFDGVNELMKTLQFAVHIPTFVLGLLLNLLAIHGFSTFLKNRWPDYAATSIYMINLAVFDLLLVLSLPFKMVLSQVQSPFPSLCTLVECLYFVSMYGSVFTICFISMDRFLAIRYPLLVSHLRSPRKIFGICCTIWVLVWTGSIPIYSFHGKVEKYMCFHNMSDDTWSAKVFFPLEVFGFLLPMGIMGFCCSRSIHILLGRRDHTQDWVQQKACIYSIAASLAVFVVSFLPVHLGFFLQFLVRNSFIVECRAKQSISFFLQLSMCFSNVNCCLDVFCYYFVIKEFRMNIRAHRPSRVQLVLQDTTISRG
Chain of Intestinal-type alkaline phosphatase (Mus musculus, UniProt P24822) (P24822 whole entry): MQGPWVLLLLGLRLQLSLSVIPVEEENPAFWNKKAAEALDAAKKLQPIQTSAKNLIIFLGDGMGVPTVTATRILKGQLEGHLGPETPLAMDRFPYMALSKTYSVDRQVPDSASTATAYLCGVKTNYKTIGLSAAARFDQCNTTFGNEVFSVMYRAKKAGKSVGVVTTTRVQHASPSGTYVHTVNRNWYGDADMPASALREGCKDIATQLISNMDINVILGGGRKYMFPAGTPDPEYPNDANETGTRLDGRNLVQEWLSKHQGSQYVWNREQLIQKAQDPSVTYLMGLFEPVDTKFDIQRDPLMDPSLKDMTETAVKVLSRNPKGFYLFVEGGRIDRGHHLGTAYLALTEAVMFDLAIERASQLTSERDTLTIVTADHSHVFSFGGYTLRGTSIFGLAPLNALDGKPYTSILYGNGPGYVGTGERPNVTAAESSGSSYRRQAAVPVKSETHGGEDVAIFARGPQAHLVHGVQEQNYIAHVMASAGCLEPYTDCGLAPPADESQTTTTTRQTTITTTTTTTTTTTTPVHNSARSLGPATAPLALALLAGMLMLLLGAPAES
Chain of Intestinal-type alkaline phosphatase (Homo sapiens, UniProt P09923) (P09923 whole entry): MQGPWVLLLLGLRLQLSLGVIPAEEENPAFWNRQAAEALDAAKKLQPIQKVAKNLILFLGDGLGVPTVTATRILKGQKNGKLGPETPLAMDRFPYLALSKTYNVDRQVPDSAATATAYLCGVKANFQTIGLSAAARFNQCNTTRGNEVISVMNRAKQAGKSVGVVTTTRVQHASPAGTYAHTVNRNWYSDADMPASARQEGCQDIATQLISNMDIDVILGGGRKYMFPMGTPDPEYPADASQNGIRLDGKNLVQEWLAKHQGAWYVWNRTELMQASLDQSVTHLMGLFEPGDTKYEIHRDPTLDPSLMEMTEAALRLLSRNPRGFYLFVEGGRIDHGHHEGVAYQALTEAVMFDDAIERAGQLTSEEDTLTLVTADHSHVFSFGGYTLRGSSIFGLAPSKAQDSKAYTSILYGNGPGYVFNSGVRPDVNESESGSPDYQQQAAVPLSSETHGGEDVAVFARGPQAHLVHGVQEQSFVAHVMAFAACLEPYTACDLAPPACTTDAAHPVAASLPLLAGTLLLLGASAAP

COc1ccc(/C=C/C(=O)Nc2ccccc2C(=O)NCC(c2ccc(OC)cc2)N(C)C)cc1 (stereo not drawn)
EC50 [1]: 0.188 µM (active)
EC50 [2]: 0.421 µM (active)
EC50 [3]: > 195 µM (not active)

O=c1[nH]cnc2scc(-c3ccc(-c4ccccc4)cc3)c12
EC50 [4]: > 99 µM (inactive)
EC50 [5]: > 99 µM (inactive)

Cc1ccc(S(=O)(=O)N2CCC(C(=O)Nc3ccc(C(C)C)cc3)CC2)cc1
IC50 [6]: 7.81 µM (active)
CC50 [7]: 13 µM (active)
IC50 [8]: > 100 µM (inactive)
IC50 [9]: > 100 µM (inactive)
IC50 [10]: 40.7 µM (active)

O=C(Nc1nnc(-c2ccccc2Cl)o1)c1cccnc1
IC50 [11]: 8.68 µM (active)
AC50 [12]: 91.9 µM (active)
CC50 [13]: > 20 µM (active)

CCOC(=O)c1c(NC(=O)C2=C(C)N=C(S)NC2c2ccc(CC)cc2)sc(C)c1C (stereo not drawn)
IC50 [14]: 1.64 µM (active)

COc1ccc(NC(=O)CN2CCN(C3c4ccccc4-c4ccccc43)CC2)c(OC)c1
IC50 [14]: 2.19 µM (active)
CC50 [15]: > 40 µM (active)

CCN1CCN(Cc2ccc(NC(=O)c3cc(NC(=O)c4cncc(-c5ccc(C#N)cc5)c4)cc(OC)c3)cc2C(F)(F)F)CC1
IC50 [16]: 10.9 µM (active)
IC50 [17]: 6.69 µM (active)
AC50 [18]: 8.2 µM (active)
IC50 [19]: 8.76 µM (active)
EC50 [3]: > 195 µM (not active)

COc1ccc(OCC(O)Cn2c(=N)n(Cc3ccccc3)c3ccccc32)cc1 (stereo not drawn)
IC50 [14]: 3.61 µM (active)
EC50 [20]: 7.31 µM (active)
EC50 [21]: 7.38 µM (active)

Cc1c(Cl)cccc1/N=c1\ssnc1Cl
IC50 [22]: > 100 µM (inactive)
IC50 [23]: > 100 µM (inactive)

O=[N+]([O-])c1c(Br)cccc1/N=c1\ssnc1Cl
IC50 [22]: 7.37 µM (active)
IC50 [23]: 4.8 µM (active)

CCOc1ccccc1CNC(=O)CCNS(=O)(=O)c1ccc2nc(O)oc2c1
IC50 [6]: 2.65 µM (active)
IC50 [8]: > 100 µM (inactive)
IC50 [9]: 22.7 µM (active)

Cc1c(CN2CCC(n3nccc3NC(=O)C3CC3)CC2)[nH]c2ccccc12
EC50 [2]: 0.596 µM (active)

Clc1nss/c1=N\c1cnc2ccccc2c1
IC50 [22]: 67.2 µM (active)
IC50 [23]: > 100 µM (inactive)

COc1cc2c(cc1OC)C(C)N(C(=O)C(NC(=O)c1ccccc1)C(C)C)CC2 (stereo not drawn)
EC50 [2]: 5.96 µM (active)

C#CCN1c2ccccc2Sc2cccnc21
EC50 [4]: 85.6 µM (inactive)
EC50 [5]: > 99 µM (inactive)

NCCc1c[nH]cn1 [HISTAMINE]
AC50 [12]: 106 µM (active)
